Test results taken from patent US11149011B2, “Compounds and methods for IDO and TDO modulation, and indications therefor” (Plexxikon Inc., priority 2018, dated 2021).
Like-named read-outs stand apart in the source and are kept apart here.

Assays:
TDO = target: T1, TDO (Homo sapiens, UniProt P48775); test: TDO enzymatic assay; details: geometric mean; read-out: TDO GMean: IC50 (μM) (Biochemical Assay)
T1 construct: His tag (N); made in house; host or cells: E. coli
Protocol: (§1) Human IDO or TDO with N-terminal His tag is purified in E. coli. The IDO enzymatic assay is performed using 6 nM IDO and 10 μM L-Trp in the presence of 10 mM ascorbic acid, 5 μM methylene blue, 100 nM catalase and 0.01% Tween 20 in 50 mM sodium phosphate buffer (pH 6.5). 19 μL of above reaction mixture is added to wells of 384 well reaction plate containing 1 μL of various concentrations of test compound or DMSO vehicle and incubated for 20 minutes at room temperature. The TDO enzymatic reaction assay is performed using 1 nM TDO and 350 μM L-Trp in the presence of 10 mM ascorbic acid, 0.4 μM methylene blue, 100 nM catalase and 0.01% Tween 20 in 50 mM sodium phosphate buffer (pH 6.5). 19 μL of above reaction mixture is added to wells of 384 well reaction plate containing 1 μL of various concentrations of test compound or DMSO vehicle and incubated for 70 minutes at room temperature. 16 wells containing all the components of reaction mixture and 5% DMSO serve as high control. 16 well containing all the components except enzyme of reaction mixture and 5% DMSO serves as low control. Both IDO and TDO enzymatic reactions are stopped by addition of 4 μL of 30% TCA and incubated 30 minutes at 50° C. to hydrolyze N-formylkynurenine produced by IDO or TDO to kynurenine. Upon measuring the kynurenine level, the percentage inhibition is calculated at individual concentrations relative to high and low controls. The data is analyzed by using nonlinear regression to generate IC50 values.

IDO1 = target: T2, IDO1 (Homo sapiens, UniProt P14902); test: IDO enzymatic assay; format: biochemical
T2 construct: His tag (N); made in house; host or cells: E. coli
Protocol: as §1

[1] = target: T3, TDO-expressing HEK293 cell clones (Homo sapiens, UniProt P48775); test: Cell based kynurenine assay, TDO-expressing HEK293 cell clones; details: HEK293 cells, 24 hours of incubation, geometric mean; read-out: HEK293 TDO Kynurenine GMean IC50 (μM) (Cellular Assay)
T3 construct: expressed in transfected cells; host or cells: HEK293
Protocol: (§2) IDO1-expressing or TDO-expressing HEK293 cell clones are generated upon stable transfection of plasmids expressing human IDO or human TDO under the control of CMV promoter. Cells are selected in DMEM media supplemented with 10% fetal bovine serum and 1 mg/ml G418 at 37° C. in a humidified incubator supplied with 5% CO2. The assays are performed as follows.
(§3) Cells were seeded in a 96 well plate in 50 μL of culture media at a density of 2.5×10^4 per well. Serial dilutions of compounds (in total volume of 50 μL culture media) are added into cells. 4 wells containing 0.2% DMSO treated cells serve as high controls and 4 wells containing media only with 0.2% DMSO serve as low controls. After 24 hours of incubation, the supernatant was transferred to a 384 well reaction plate and the kynurenine level determined. The percentage inhibition at individual concentrations relative to high and low controls is calculated. The data is analyzed by using nonlinear regression to generate IC50 values.

[2] = target: T4, IDO1-expressing HEK293 cell clones (Homo sapiens, UniProt P14902); test: Cell based kynurenine assay, IDO1-expressing HEK293 cell clones
T4 construct: expressed in transfected cells; host or cells: HEK293
Protocol: as §2, §3

[3] = geometric mean, read-out: IDO1 GMean: IC50 (μM) (Biochemical Assay)
[4] = HEK293 cells, 24 hours of incubation, geometric mean, read-out: HEK293 IDO1 Kynurenine GMean IC50 (μM) (Cellular Assay)
[5] = comparative examples 4,6 vs 5,7 indazole, cellular potency, read-out: hIDO1

T1 sequence (P48775 whole entry): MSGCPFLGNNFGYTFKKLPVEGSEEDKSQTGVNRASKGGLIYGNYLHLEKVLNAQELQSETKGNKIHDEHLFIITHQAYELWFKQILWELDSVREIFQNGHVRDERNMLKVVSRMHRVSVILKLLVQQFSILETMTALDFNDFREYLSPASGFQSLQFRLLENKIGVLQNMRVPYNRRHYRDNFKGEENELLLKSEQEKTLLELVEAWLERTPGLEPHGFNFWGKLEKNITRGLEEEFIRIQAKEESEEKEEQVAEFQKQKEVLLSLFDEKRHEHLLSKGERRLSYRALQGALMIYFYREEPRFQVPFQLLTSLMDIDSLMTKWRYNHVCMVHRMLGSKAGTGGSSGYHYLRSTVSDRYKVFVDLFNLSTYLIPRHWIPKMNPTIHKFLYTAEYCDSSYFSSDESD
T3 sequence (P48775 whole entry): as above
T2 sequence (P14902 whole entry): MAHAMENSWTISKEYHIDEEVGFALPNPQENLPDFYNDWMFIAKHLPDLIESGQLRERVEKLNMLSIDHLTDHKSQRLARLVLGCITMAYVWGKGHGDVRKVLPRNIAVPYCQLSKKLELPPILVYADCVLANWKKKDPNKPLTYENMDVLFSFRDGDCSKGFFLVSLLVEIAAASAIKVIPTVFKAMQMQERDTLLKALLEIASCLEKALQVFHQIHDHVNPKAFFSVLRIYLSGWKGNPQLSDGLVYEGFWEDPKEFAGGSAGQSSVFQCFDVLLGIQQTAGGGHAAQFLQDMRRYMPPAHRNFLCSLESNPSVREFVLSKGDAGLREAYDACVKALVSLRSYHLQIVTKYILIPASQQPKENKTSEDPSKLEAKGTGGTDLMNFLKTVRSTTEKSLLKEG
T4 sequence (P14902 whole entry): as above

IC50 (TDO) [µM]	IC50 (IDO1; [3]) [µM]	IC50 [1] [µM]	IC50 [2, 4] [µM]	IC50 (IDO1; comparative examples 4,6 vs 5,7 indazole, biochemical potency, read-out: IDO1) [µM]	IC50 [2, 5] [µM]	Structure (SMILES)
0.0001 to 10	0.0001 to 10	0.0001 to 10	> 10			C#CCNC(=O)N1CCC(C(C)(C)C(O)c2cc(Cl)cc3[nH]ncc23)CC1 (stereo not shown) [Compound P-0088, 4-(1-(6-chloro-1H-indazol-4-yl)-1-hydroxy-2-methylpropan-2-yl)-N-(prop-2-yn-1-yl)piperidine-1-carboxamide]
0.0001 to 10	0.0001 to 10	0.0001 to 10	0.0001 to 10			CC(C)(C1CCN(C(=O)NCC2CC2)CC1)C(O)c1cc(Cl)cc2[nH]ncc12 (stereo not shown) [Compound P-0080, 4-(1-(6-chloro-1H-indazol-4-yl)-1-hydroxy-2-methylpropan-2-yl)-N-(cyclopropylmethyl)piperidine-1-carboxamide]
0.0001 to 10	0.0001 to 10	0.0001 to 10	0.0001 to 10			CC(C)(C1CCN(C(=O)NC2CC2)CC1)C(O)c1cc(Cl)cc2[nH]ncc12 (stereo not shown) [Compound P-0081, 4-(1-(6-chloro-1H-indazol-4-yl)-1-hydroxy-2-methylpropan-2-yl)-N-cyclopropylpiperidine-1-carboxamide]
0.0001 to 10	0.0001 to 10	0.0001 to 10	0.0001 to 10			CC(C)(C1CCN(C(=O)C2(O)CC2)CC1)[C@H](O)c1cc(Cl)cc2cn[nH]c12 [Compound P-0133, (S)-(4-(1-(5-chloro-1H-indazol-7-yl)-1-hydroxy-2-methylpropan-2-yl)piperidin-1-yl)(1-hydroxycyclopropyl)methanone]
0.0001 to 10	0.0001 to 10	0.0001 to 10	0.0001 to 10			CC(C)(C1CCN(C(=O)N[C@H]2CCOC2)CC1)C(O)c1cc(Cl)cc2[nH]ncc12 (stereo partly drawn) [Compound P-0114, 4-(1-(6-chloro-1H-indazol-4-yl)-1-hydroxy-2-methylpropan-2-yl)-N-((S)-tetrahydrofuran-3-yl)piperidine-1-carboxamide]
0.0001 to 10	0.0001 to 10	0.0001 to 10	0.0001 to 10			C[C@H](O)C(=O)N1CCC(C(C)(C)[C@H](O)c2cc(Cl)cc3cn[nH]c23)CC1 [Compound P-0124, (S)-1-(4-((S)-1-(5-chloro-1H-indazol-7-yl)-1-hydroxy-2-methylpropan-2-yl)piperidin-1-yl)-2-hydroxypropan-1-one]
0.0001 to 10	0.0001 to 10	0.0001 to 10	0.0001 to 10			CC(C)(C1CCN(C(=O)NCC(F)(F)F)CC1)C(O)c1cc(Cl)cc2[nH]ncc12 (stereo not shown) [Compound P-0084, 4-(1-(6-chloro-1H-indazol-4-yl)-1-hydroxy-2-methylpropan-2-yl)-N-(2,2,2-trifluoroethyl)piperidine-1-carboxamide]
0.0001 to 10	0.0001 to 10	0.0001 to 10	0.0001 to 10			CC(C)(C1CCN(C(=O)CN)CC1)[C@H](O)c1cc(Cl)cc2cn[nH]c12 [Compound P-0126, (S)-2-amino-1-(4-(1-(5-chloro-1H-indazol-7-yl)-1-hydroxy-2-methylpropan-2-yl)piperidin-1-yl)ethan-1-one]
		> 10	0.0001 to 10			CC(C)(C1CCN(C(=O)[C@@H]2CCNC2)CC1)[C@H](O)c1cc(Cl)cc2cn[nH]c12 [Compound P-0140, (4-((S)-1-(5-chloro-1H-indazol-7-yl)-1-hydroxy-2-methylpropan-2-yl)piperidin-1-yl)((R)-1λ^2-pyrrolidin-3-yl)methanone]
		0.0001 to 10	0.0001 to 10			CC(C)(C1CCN(C(=O)[C@H]2CCCN2)CC1)[C@H](O)c1cc(Cl)cc2cn[nH]c12 [Compound P-0139, (4-((S)-1-(5-chloro-1H-indazol-7-yl)-1-hydroxy-2-methylpropan-2-yl)piperidin-1-yl)((R)-1λ^2-pyrrolidin-2-yl)methanone]
		> 10	0.0001 to 10			CC(C)(C1CCN(C(=O)[C@H]2CCNC2)CC1)[C@H](O)c1cc(Cl)cc2cn[nH]c12 [Compound P-0141, (4-((S)-1-(5-chloro-1H-indazol-7-yl)-1-hydroxy-2-methylpropan-2-yl)piperidin-1-yl)((S)-1λ^2-pyrrolidin-3-yl)methanone]
		0.0001 to 10	0.0001 to 10			CC(C)(C1CCN(C(=O)[C@@H]2CCCN2)CC1)[C@H](O)c1cc(Cl)cc2cn[nH]c12 [Compound P-0138, (4-((S)-1-(5-chloro-1H-indazol-7-yl)-1-hydroxy-2-methylpropan-2-yl)piperidin-1-yl)((S)-1λ^2-pyrrolidin-2-yl)methanone]

Continued, compound first:

Structure (SMILES)	IC50 (TDO) [µM]	IC50 (IDO1; [3]) [µM]	IC50 [1] [µM]	IC50 [2, 4] [µM]	IC50 (IDO1; comparative examples 4,6 vs 5,7 indazole, biochemical potency, read-out: IDO1) [µM]	IC50 [2, 5] [µM]
CCCNC(=O)N1CCC(C(C)(C)C(O)c2cc(Cl)cc3[nH]ncc23)CC1 (stereo not shown) [Compound P-0077, 4-(1-(6-chloro-1H-indazol-4-yl)-1-hydroxy-2-methylpropan-2-yl)-N-propylpiperidine-1-carboxamide]	0.0001 to 10	0.0001 to 10	0.0001 to 10	0.0001 to 10		
CC(C)(C1CCN(C(=O)NC2CCC2)CC1)C(O)c1cc(Cl)cc2[nH]ncc12 (stereo not shown) [Compound P-0078, 4-(1-(6-chloro-1H-indazol-4-yl)-1-hydroxy-2-methylpropan-2-yl)-N-cyclobutylpiperidine-1-carboxamide]	0.0001 to 10	0.0001 to 10	0.0001 to 10	0.0001 to 10		
OC1(c2cc(Cl)cc3cn[nH]c23)CC2(CC2)C1 [Compound P-0011, 5-(5-chloro-1H-indazol-7-yl)spiro[2.3]hexan-5-ol]	0.0001 to 10	0.0001 to 10	0.0001 to 10			
CC(C)(C1CCN(C(=O)CC2CCOCC2)CC1)C(O)c1cc(Cl)cc2[nH]ncc12 (stereo not shown) [Compound P-0050, 1-(4-(1-(6-chloro-1H-indazol-4-yl)-1-hydroxy-2-methylpropan-2-yl)piperidin-1-yl)-2-(tetrahydro-2H-pyran-4-yl)ethan-1-one]	0.0001 to 10	0.0001 to 10	0.0001 to 10	0.0001 to 10		
O=S1(=O)CC2(CC(O)(c3cc(Cl)cc4cn[nH]c34)C2)C1 [Compound P-0057, 6-(5-chloro-1H-indazol-7-yl)-6-hydroxy-2-thiaspiro[3.3]heptane 2,2-dioxide]	0.0001 to 10	0.0001 to 10	0.0001 to 10			
CS(=O)(=O)N1CCC(O)(c2cc(Cl)cc3cn[nH]c23)CC1 [Compound P-0017, 4-(5-chloro-1H-indazol-7-yl)-1-(methylsulfonyl)piperidin-4-ol]	0.0001 to 10	0.0001 to 10	0.0001 to 10			
OC1(c2cc(Cl)cc3[nH]ncc23)CC2(CCOCC2)C1					200	≥ 10
OC1(c2cc(Cl)cc3[nH]ncc23)CC2(CCC2)C1						≥ 10
OC1(c2cc(Cl)cc3cn[nH]c23)CC2(CCNCC2)C1 [Compound P-0014, 2-(5-chloro-1H-indazol-7-yl)-7-azaspiro[3.5]nonan-2-ol]		0.0001 to 10				
CC(C)(C)OC(=O)N1CCC2(CC1)CC(O)(c1cc(Cl)cc3cn[nH]c13)C2 [Compound P-0013, tert-butyl 2-(5-chloro-1H-indazol-7-yl)-2-hydroxy-7-azaspiro[3.5]nonane-7-carboxylate]	0.0001 to 10	0.0001 to 10	0.0001 to 10			
OC1(c2cc(Cl)cc3cn[nH]c23)CC2(CCC2)C1						≥ 10
CS(=O)(=O)N1CC(O)(c2cc(Cl)cc3cn[nH]c23)C1 [Compound P-0018, 3-(5-chloro-1H-indazol-7-yl)-1-(methylsulfonyl)azetidin-3-ol]	0.0001 to 10	0.0001 to 10	0.0001 to 10			
CC(=O)N1CCC(C(F)(F)C(O)c2c(F)c(Cl)cc3cn[nH]c23)CC1 (stereo not shown) [Compound P-0056, 1-(4-(2-(5-chloro-6-fluoro-1H-indazol-7-yl)-1,1-difluoro-2-hydroxyethyl)piperidin-1-yl)ethan-1-one]			> 10			
